Data taken from the supplement of paper PMC10307832.

Assays:
Assay in all cases: relative viability (nuclei count vs DMSO), 5 days (fraction); higher = more cells survive
CAL-12T = tested on: CAL-12T
Summary of the method: (§1)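 Medians of duplicate plates are given as relative viability. That measure is the nuclei count in treated wells divided by the count in vehicle wells. Counts were taken on 4× images of lung cancer cell lines in 1536-well plates, 5 days after pin-tool dosing the day after seeding with one drug alone or a fixed anchor-drug dose plus five library-drug doses (not always all listed) in √10 steps.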

BEN = tested on: BEN
Summary of the method: as §1

NCI-H520 = tested on: NCI-H520
Summary of the method: as §1

NCI-H2023 = tested on: NCI-H2023
Summary of the method: as §1

NCI-H1650 = tested on: NCI-H1650
Summary of the method: as §1

NCI-H1944 = tested on: NCI-H1944
Summary of the method: as §1

NCI-H1915 = tested on: NCI-H1915
Summary of the method: as §1

NCI-H727 = tested on: NCI-H727
Summary of the method: as §1

201T = tested on: 201T
Summary of the method: as §1

NCI-H661 = tested on: NCI-H661
Summary of the method: as §1

PC-3 [JPC-3] = tested on: PC-3 [JPC-3]
Summary of the method: as §1

A-427 = tested on: A-427
Summary of the method: as §1

NCI-H460 = tested on: NCI-H460
Summary of the method: as §1

NCI-H441 = tested on: NCI-H441
Summary of the method: as §1

LCLC-97TM1 = tested on: LCLC-97TM1
Summary of the method: as §1

LC-2-ad = tested on: LC-2-ad
Summary of the method: as §1

ABC-1 = tested on: ABC-1
Summary of the method: as §1

NCI-H596 = tested on: NCI-H596
Summary of the method: as §1

H3255 = tested on: H3255
Summary of the method: as §1

NCI-H650 = tested on: NCI-H650
Summary of the method: as §1

NCI-H1651 = tested on: NCI-H1651
Summary of the method: as §1

NCI-H1792 = tested on: NCI-H1792
Summary of the method: as §1

NCI-H2087 = tested on: NCI-H2087
Summary of the method: as §1

CC1(C)CCC(c2ccc(Cl)cc2)=C(CN2CCN(c3ccc(C(=O)NS(=O)(=O)c4ccc(N[C@H](CCN5CCOCC5)CSc5ccccc5)c(S(=O)(=O)C(F)(F)F)c4)cc3)CC2)C1 [Navitoclax] + Cc1nc(Nc2ncc(C(=O)Nc3c(C)cccc3Cl)s2)cc(N2CCN(CCO)CC2)n1 [Dasatinib] (partner 0.075 µM)
relative viability (CAL-12T; first compound 0.005 µM): 0.433
relative viability (CAL-12T; first compound 0.01581 µM): 0.6
relative viability (CAL-12T; first compound 0.05 µM): 0.325
relative viability (CAL-12T; first compound 0.1581 µM): 0.492
relative viability (CAL-12T; first compound 0.5 µM): 0.506
relative viability (BEN; first compound 0.005 µM): 0.301
relative viability (BEN; first compound 0.01581 µM): 0.312
relative viability (BEN; first compound 0.05 µM): 0.333
relative viability (BEN; first compound 0.1581 µM): 0.297
relative viability (BEN; first compound 0.5 µM): 0.0643
relative viability (NCI-H520; first compound 0.01581 µM): 0.205
relative viability (NCI-H520; first compound 0.05 µM): 0.272
relative viability (NCI-H520; first compound 0.1581 µM): 0.201
relative viability (NCI-H520; first compound 0.5 µM): 0.258
relative viability (NCI-H2023; first compound 0.005 µM): 0.488
relative viability (NCI-H2023; first compound 0.01581 µM): 0.594
relative viability (NCI-H2023; first compound 0.05 µM): 0.621
relative viability (NCI-H2023; first compound 0.1581 µM): 0.648
relative viability (NCI-H2023; first compound 0.5 µM): 0.561
relative viability (NCI-H1650; first compound 0.005 µM): 0.28
relative viability (NCI-H1650; first compound 0.01581 µM): 0.38
relative viability (NCI-H1650; first compound 0.05 µM): 0.314
relative viability (NCI-H1650; first compound 0.1581 µM): 0.277
relative viability (NCI-H1650; first compound 0.5 µM): 0.219
relative viability (NCI-H1944; first compound 0.005 µM): 0.235
relative viability (NCI-H1944; first compound 0.01581 µM): 0.235
relative viability (NCI-H1944; first compound 0.05 µM): 0.268
relative viability (NCI-H1944; first compound 0.1581 µM): 0.282
relative viability (NCI-H1944; first compound 0.5 µM): 0.398
relative viability (NCI-H1915; first compound 0.005 µM): 0.323
relative viability (NCI-H1915; first compound 0.01581 µM): 0.333
relative viability (NCI-H1915; first compound 0.05 µM): 0.335
relative viability (NCI-H1915; first compound 0.1581 µM): 0.309
relative viability (NCI-H1915; first compound 0.5 µM): 0.354
relative viability (NCI-H727; first compound 0.01581 µM): 0.364
relative viability (NCI-H727; first compound 0.1581 µM): 0.365
relative viability (NCI-H727; first compound 0.5 µM): 0.347
relative viability (201T; first compound 0.005 µM): 0.603
relative viability (201T; first compound 0.01581 µM): 0.662
relative viability (201T; first compound 0.05 µM): 0.587
relative viability (201T; first compound 0.1581 µM): 0.592
relative viability (201T; first compound 0.5 µM): 0.714
relative viability (NCI-H661; first compound 0.005 µM): 0.621
relative viability (NCI-H661; first compound 0.01581 µM): 1.11
relative viability (NCI-H661; first compound 0.05 µM): 0.901
relative viability (NCI-H661; first compound 0.1581 µM): 0.933
relative viability (NCI-H661; first compound 0.5 µM): 0.926
relative viability (PC-3 [JPC-3]; first compound 0.005 µM): 1.02
relative viability (PC-3 [JPC-3]; first compound 0.01581 µM): 1.07
relative viability (PC-3 [JPC-3]; first compound 0.05 µM): 0.773
relative viability (PC-3 [JPC-3]; first compound 0.1581 µM): 0.97
relative viability (PC-3 [JPC-3]; first compound 0.5 µM): 0.858
relative viability (A-427; first compound 0.005 µM): 0.784
relative viability (A-427; first compound 0.01581 µM): 0.694
relative viability (A-427; first compound 0.05 µM): 0.71
relative viability (A-427; first compound 0.1581 µM): 0.734
relative viability (A-427; first compound 0.5 µM): 0.643
relative viability (NCI-H460; first compound 0.005 µM): 0.522
relative viability (NCI-H460; first compound 0.01581 µM): 0.609
relative viability (NCI-H460; first compound 0.05 µM): 0.651
relative viability (NCI-H460; first compound 0.1581 µM): 0.53
relative viability (NCI-H460; first compound 0.5 µM): 0.483
relative viability (NCI-H441; first compound 0.005 µM): 0.739
relative viability (NCI-H441; first compound 0.01581 µM): 0.639
relative viability (NCI-H441; first compound 0.05 µM): 0.549
relative viability (NCI-H441; first compound 0.1581 µM): 0.632
relative viability (NCI-H441; first compound 0.5 µM): 0.637
relative viability (LCLC-97TM1; first compound 0.005 µM): 0.822
relative viability (LCLC-97TM1; first compound 0.01581 µM): 0.939
relative viability (LCLC-97TM1; first compound 0.05 µM): 0.648
relative viability (LCLC-97TM1; first compound 0.1581 µM): 0.825
relative viability (LCLC-97TM1; first compound 0.5 µM): 0.826
relative viability (LC-2-ad; first compound 0.005 µM): 0.442
relative viability (LC-2-ad; first compound 0.01581 µM): 0.812
relative viability (LC-2-ad; first compound 0.05 µM): 0.691
relative viability (LC-2-ad; first compound 0.1581 µM): 0.406
relative viability (LC-2-ad; first compound 0.5 µM): 0.342
relative viability (ABC-1; first compound 0.005 µM): 0.588
relative viability (ABC-1; first compound 0.01581 µM): 0.644
relative viability (ABC-1; first compound 0.05 µM): 0.49
relative viability (ABC-1; first compound 0.1581 µM): 0.555
relative viability (ABC-1; first compound 0.5 µM): 0.61
relative viability (NCI-H596; first compound 0.005 µM): 0.734
relative viability (NCI-H596; first compound 0.01581 µM): 0.68
relative viability (NCI-H596; first compound 0.1581 µM): 0.603
relative viability (NCI-H596; first compound 0.5 µM): 0.438
relative viability (H3255; first compound 0.005 µM): 0.344
relative viability (H3255; first compound 0.01581 µM): 0.424
relative viability (H3255; first compound 0.05 µM): 0.346
relative viability (H3255; first compound 0.1581 µM): 0.31
relative viability (H3255; first compound 0.5 µM): 0.204
relative viability (NCI-H650; first compound 0.005 µM): 0.456
relative viability (NCI-H650; first compound 0.01581 µM): 0.473
relative viability (NCI-H650; first compound 0.05 µM): 0.463
relative viability (NCI-H650; first compound 0.1581 µM): 0.477
relative viability (NCI-H650; first compound 0.5 µM): 0.459
relative viability (NCI-H1651; first compound 0.005 µM): 0.37
relative viability (NCI-H1651; first compound 0.01581 µM): 0.41
relative viability (NCI-H1651; first compound 0.05 µM): 0.308
relative viability (NCI-H1651; first compound 0.1581 µM): 0.455
relative viability (NCI-H1651; first compound 0.5 µM): 0.456
relative viability (NCI-H1792; first compound 0.005 µM): 0.717
relative viability (NCI-H1792; first compound 0.01581 µM): 0.914
relative viability (NCI-H1792; first compound 0.05 µM): 0.64
relative viability (NCI-H1792; first compound 0.1581 µM): 0.782
relative viability (NCI-H1792; first compound 0.5 µM): 0.79
relative viability (NCI-H2087; first compound 0.005 µM): 0.901
relative viability (NCI-H2087; first compound 0.01581 µM): 0.88
relative viability (NCI-H2087; first compound 0.1581 µM): 0.887
relative viability (NCI-H2087; first compound 0.5 µM): 0.793
